In publication PMC7804859, “A metabolically stable apelin-17 analog decreases AVP-induced antidiuresis and improves hyponatremia” (Nature Communications, 2021):
Read-outs that look alike come from different tables or passages of the source.

Assays:
[1] = target: T1, rat apelin-R (Rattus norvegicus, UniProt Q9JHG3); test: Radioligand binding ([125I]-pE13F) to membranes from CHO cells stably expressing rat apelin-R-EGFP; conditions: 1 h 20 °C, pH 7.4, new batch of LIT01-196
T1 construct: expressed in transfected cells; membrane preparation
T1 sequence (Q9JHG3 1-377): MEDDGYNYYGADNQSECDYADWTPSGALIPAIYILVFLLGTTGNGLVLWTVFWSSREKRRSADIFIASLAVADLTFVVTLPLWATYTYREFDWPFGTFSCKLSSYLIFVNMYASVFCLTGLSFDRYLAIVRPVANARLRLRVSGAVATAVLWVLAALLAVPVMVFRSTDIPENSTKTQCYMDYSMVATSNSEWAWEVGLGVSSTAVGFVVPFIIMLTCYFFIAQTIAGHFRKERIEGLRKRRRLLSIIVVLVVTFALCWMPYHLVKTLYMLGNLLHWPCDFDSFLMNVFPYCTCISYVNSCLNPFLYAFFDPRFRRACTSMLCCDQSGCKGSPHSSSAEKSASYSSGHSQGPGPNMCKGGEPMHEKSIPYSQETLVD
Protocol: Membranes from CHO cells stably expressing rat apelin-R-EGFP were prepared as previously described[23]. […] The reaction was stopped by adding ice-cold binding buffer and filtering through Whatman GF/C filters. The filters were washed and radioactivity was counted with a Wizard 1470 Wallac gamma counter (PerkinElmer, Turku, Finland).

[2] = in vivo; conditions: rat, in vivo, iv
Protocol: (§1) 187 Apelin radioimmunoassay
(§2) 188 Plasma samples (0.5 ml) were acidified with 0.175 ml of 3 mol/l HCl and stored at -80°C
(§3) 189 until use for apelin RIA. Before thawing the sample on ice, 0.05% BSA was added, and the
(§4) 190 samples were centrifuged at 20000 x g at 4°C for 10 min. The supernatants were collected and
(§5) 191 the pH was adjusted to 6.5 with 10 mol/l NaOH and 2 mol/l Tris-HCl buffer (pH 7.4). Apelin
(§6) 192 was extracted from plasma by mixing the supernatant with 0.3 ml of 0.1% BSA in H2O and 1
(§7) 193 ml of 1% trifluoroacetic acid (TFA) - 0.1% BSA, and running the mixture on a Sep-Pak C18
(§8) 194 cartridge (Waters) previously washed with 2 ml 100% acetonitrile and equilibrated with 5 ml
(§9) 195 1% TFA - 0.1% BSA. The columns then were washed with 3 ml 1% TFA - 0.1% BSA and
(§10) 196 apelin was eluted with 1.5 ml 100% acetonitrile. […]
(§11) 208 Plasma or brain apelin levels w ere deter mined by RIA. Samples (0.1ml) w ere mixed with 125I-
(§12) 211 dilution: 1/4500) to give a total volume of 0.2 ml and were incubated at 4°C overnight. We
(§13) 212 used this radioligand instead of [Glp65, Nle75, Tyr77] [125I]-apelin13 since the substitution of
(§14) 214 derivatives as described previously by 3,4.
(§15) 215 We then added 0.5 ml of Amerlex (Amersham RPN 510), and the resulting mixture was
(§16) 216 incubated for 10 min at room temperature. The tubes were centrifuged at 2600 x g at 4°C for
217 20 min. The supernatant was removed and the radioactivity of the precipitates was measured.
218 We assessed the cross-reactivity of the apelin antiserum with various N- and C-terminally
232 according to the following equation: [plasma apelin] tx = [plasma apelin] t0 * e(-kt) , where k is
233 the elimination rate constant. […]

[3] = in vivo; conditions: mouse, in vivo, iv
Protocol: as §1, §2, §3, §4, §5, §6, §7, §8, §9, §10, §11, §12, §13, §14, §15, §16
217 20 min. The supernatant was removed and the radioactivity of the precipitates was measured. […]

[4] = target: T2, rat apelin-R-EGFP (Rattus norvegicus, UniProt Q9JHG3); test: Inhibition of forskolin-induced cAMP production in CHO cells stably expressing rat apelin-R-EGFP (HTRF); assay type: cell-based; conditions: 5 µmol/l forskolin, 30 min 20 °C
T2 construct: expressed in transfected cells
T2 sequence (Q9JHG3 1-377): T1 sequence (Q9JHG3 1-377)
Protocol: (§17) 152 Supplementary Methods
(§18) 154 We quantified cAMP production with the cAMP dynamic 2 assay kit (Cisbio Bioassays,
(§19) 155 Codolet, France), which is based on homogeneous time-resolved fluorescence (HTRF)
156 technology, as previously described 1. For cells expressing the Apelin-R, 2000 CHO cells/well
157 stably expressing rat apelinR-EGFP (clone B70) were added to the 384-well plate and
158 stimulated with 5 µmol/l forskolin (FSK) and various concentrations (0.01 pmol/l to 100 […]
(§20) Cells were then lysed, and
(§21) 165 cAMP levels were determined in accordance with the kit manufacturer’s instructions.
(§22) 166 Stimulation was performed in stimulation buffer-IBMX (SBI) (Hank’s balanced salt solution
(§23) 167 (HBSS-Life Technology), 5 mmol/l Hepes, 0.1% BSA stabilizer (Perkin Elmer), 1 mmol/l
(§24) 168 isobutylmethylxanthine (IBMX, Sigma Aldrich, pH 7.4)). […]

[5] = target: T3, human V2-R (Homo sapiens, UniProt P30518); test: cAMP production in HEK-293 T cells expressing the human V2-R (HTRF); assay type: cell-based; conditions: FSK 5.10-6M
T3 construct: host or cells: HEK-293T cells, transient transfection
T3 sequence (P30518 whole entry): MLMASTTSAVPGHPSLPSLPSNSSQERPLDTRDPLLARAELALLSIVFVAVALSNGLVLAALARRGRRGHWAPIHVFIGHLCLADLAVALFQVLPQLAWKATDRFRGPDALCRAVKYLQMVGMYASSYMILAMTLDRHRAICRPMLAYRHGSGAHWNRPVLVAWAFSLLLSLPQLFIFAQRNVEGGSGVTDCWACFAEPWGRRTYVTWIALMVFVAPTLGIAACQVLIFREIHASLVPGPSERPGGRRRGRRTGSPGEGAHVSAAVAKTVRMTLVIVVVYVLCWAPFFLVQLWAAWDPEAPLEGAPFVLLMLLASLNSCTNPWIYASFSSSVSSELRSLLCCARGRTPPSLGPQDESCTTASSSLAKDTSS
Protocol: as §17, §18, §19
156 technology, as previously described 1. […]
For cells expressing the V2-R, HEK-
160 293T cells were transiently transfected with the human V2-R (cDNA Resource Center), after
161 48h, 4000 cells/well were added to white 384-well optiplates and stimulated either with 5
as §20, §21, §22, §23, §24

[6] = test system: anti-K17F serum; conditions: cited from earlier work; for cross-reactivity with the apelin antiserum: ref De Mota et al, PNAS, 2004
Protocol: The columns were then treated as described in 207 the paragraph above.

With `CSCC[C@H](NC(=O)[C@@H]1CCCN1C(=O)CNC(=O)[C@H](CCCCN)NC(=O)[C@H](Cc1cnc[nH]1)NC(=O)[C@H](CO)NC(=O)[C@H](CC(C)C)NC(=O)[C@H](CCCNC(=N)N)NC(=O)[C@@H]1CCCN1C(=O)[C@H](CCCNC(=N)N)NC(=O)[C@H](CCC(N)=O)NC(=O)[C@H](CCCNC(=N)N)NC(=O)[C@H](CCCNC(=N)N)NC(=O)[C@H](Cc1ccccc1)NC(=O)[C@@H](N)CCCCN)C(=O)N1CCC[C@H]1C(=O)N[C@@H](Cc1ccccc1)C(=O)O` [K17F, reference compound] the Ki [1] was 0.14 ± 0.02 nM, the half-life [2] was 50 s and the half-life [3] was 44 s. The IC50 [4] was 0.6 ± 0.2 nM.
In the case of `C=C[C@@]1(C)CC(=O)[C@]2(O)[C@@]3(C)[C@@H](O)CCC(C)(C)[C@@H]3[C@H](O)[C@H](OC(C)=O)[C@@]2(C)O1` [FSK], the “cAMP production, Value (Fig 2B)” value ([5]; experiment 1) is reported as 139.382, the “cAMP production, Value (Fig 2B)” value ([5]; experiment 2) is reported as 85.1109 and the “cAMP production, Value (Fig 2B)” value ([5]; experiment 3) is reported as 116.78. For the same compound, the “cAMP production, Value (Fig 2B)” value ([5]; experiment 4) was 128.996.
In the case of “K16P: K17F after removal of the phenylalanine residue at the extreme end of the C-terminus (KFRRQRPRLSHKGPMP; UniProt Q9ULZ1 61-76, looked up, fragment)”, the “recognition by antibody directed against K17F” value [6] is listed as “does not recognize” and the “cross-reactivity with the apelin antiserum” value (“cross-reactivity” below) ([6]; pE13F taken as 100%) is listed as less than 0.3%.
In the case of “angiotensin II (DRVYIHPF; Angiotensin-2; UniProt P01019 25-32, looked up)”, the “cross-reactivity” value [6] is given as “Negligible cross-reactivity”.
In the case of “apelin 36: molecular form of apelin identified in vivo (LVQPRGSRNGPGPWQGGRRKFRRQRPRLSHKGPMPF; Apelin-36; UniProt Q9ULZ1 42-77, looked up)”, the “cross-reactivity” value ([6]; pE13F taken as 100%) is given as 100%.
